# Assay results reported in ChEMBL document CHEMBL1151353, “Normaytansine, a new antileukemic ansa macrolide from Maytenus buchananii” (1980).
# Columns and labels:
# KB = test: Cytotoxicity against human KB cells; assay type: functional; details: read-out: ED50 (the source's name)
# P388 = test: In vivo antitumor activity against mouse P388 cells in mouse at 100 mg/kg relative to control; assay type: functional
structure (smiles),measurement,setting,value
COc1cc2cc(c1Cl)NC(=O)C[C@H](OC(=O)[C@H](C)N(C)C(C)=O)[C@]1(C)O[C@H]1[C@H](C)[C@@H]1C[C@@](O)(NC(=O)O1)[C@H](OC)/C=C/C=C(\C)C2 [NORMAYTANSINE],EC50,KB,1 ng/mL
same,T/C,P388,181%
